Data from PubChem BioAssay (NCI).
“And” between values parts separate entries of the source, which are not always exact repeats. Equal entries are not always repeated.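 Cultured in 96-well plates, cells were exposed to test compound for 48 hours across five concentrations. The concentration for 50% growth inhibition is given as GI50. The concentration for full growth arrest is given as TGI.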

Key:
Test in all cases: inhibition of tumour cell growth, NCI panel, 48 h
A498 renal = system: A498 renal
CCRF-CEM leukemia = system: CCRF-CEM leukemia
HT29 colon = system: HT29 colon
IGROV1 ovarian = system: IGROV1 ovarian
NCI-H522 lung = system: NCI-H522 lung
SK-MEL-2 melanoma = system: SK-MEL-2 melanoma
SK-MEL-28 melanoma = system: SK-MEL-28 melanoma
SK-MEL-5 melanoma = system: SK-MEL-5 melanoma
UACC-62 melanoma = system: UACC-62 melanoma
UO-31 renal = system: UO-31 renal

Compound | GI50 (A498 renal) | TGI (A498 renal) | GI50 (CCRF-CEM leukemia) | TGI (CCRF-CEM leukemia) | GI50 (HT29 colon) | TGI (HT29 colon) | GI50 (IGROV1 ovarian) | TGI (IGROV1 ovarian) | GI50 (NCI-H522 lung) | TGI (NCI-H522 lung) | GI50 (SK-MEL-2 melanoma) | TGI (SK-MEL-2 melanoma) | GI50 (SK-MEL-28 melanoma) | TGI (SK-MEL-28 melanoma) | GI50 (SK-MEL-5 melanoma) | TGI (SK-MEL-5 melanoma) | GI50 (UACC-62 melanoma) | TGI (UACC-62 melanoma) | GI50 (UO-31 renal) | TGI (UO-31 renal)
CC(C)(C)OC(=O)n1c(Cl)c(C(=O)N=C=S)c2ccccc21 | 92.6 µM | > 100 µM | 35.5 µM | > 100 µM | > 100 µM | > 100 µM | 9.65 µM | 34.7 µM | 18.1 µM | 37.6 µM | 24.7 µM | 75.8 µM | 80.7 µM | > 100 µM | 18.8 µM | 40.1 µM | 28.8 µM | 79 µM | 18.5 µM | 35.8 µM
NC(=O)c1ncn(C2OC(CO)C(O)C2O)c1NC(=S)NC(=O)c1ccccc1 (stereo not given) |  | > 100 µM |  | > 100 µM |  | > 100 µM |  | > 100 µM |  | > 100 µM |  | > 100 µM |  | > 100 µM |  | > 100 µM |  | > 100 µM |  | > 100 µM
O=c1ncccn1C1OC(CO)C(O)C1F (stereo not given) |  | > 100 µM | > 100 µM | > 100 µM |  | > 100 µM |  | > 100 µM |  | > 100 µM |  | > 100 µM |  | > 100 µM |  | > 100 µM | > 100 µM | > 100 µM | > 100 µM | > 100 µM
COc1ccc(CNC(=O)c2ccc(-c3cc(-c4nnc(C)o4)ccc3C)cc2)cc1 | 8.22 µM | > 25 µM | > 25 µM | > 25 µM | > 25 µM | > 25 µM | > 22.6 µM | > 25 µM | > 20.2 µM | > 25 µM | > 25 µM | > 25 µM | > 25 µM | > 25 µM | 6.17 µM | > 19.9 µM | 11.1 µM | > 25 µM | 6.03 µM | > 25 µM
CN1C(=O)CC2(C)c3cc(C=O)ccc3N(C)C12 (stereo not given) |  | > 100 µM |  | > 100 µM |  | > 100 µM |  | > 100 µM |  | > 100 µM |  | > 100 µM |  | > 100 µM |  | > 100 µM |  | > 100 µM |  | > 100 µM
Cc1cc(C)c2nccc(NCCCN(C)C)c2c1[N+](=O)[O-] |  | > 100 µM |  | > 100 µM |  | 41.5 µM |  | 92.3 µM |  | 27.5 µM |  | 58.8 µM |  | 37 µM |  | 26.6 µM |  | > 100 µM |  | 42.8 µM
Cc1cc(N(CCC#N)CCC#N)ccc1/C=C/C(=O)Nc1ccccc1Cl |  | > 100 µM |  | > 100 µM |  | > 100 µM |  | > 100 µM |  | > 100 µM |  | > 100 µM |  | > 100 µM |  | > 100 µM |  | > 100 µM |  | > 100 µM
CC1(C)Oc2ccccc2N2O[C@@H]3C(=O)N(c4ccccc4)C(=O)[C@@H]3C21c1ccccc1 (stereo not given in full) |  | 47.3 µM |  | > 100 µM |  | 68.5 µM |  | > 100 µM |  | 93.2 µM |  | 53.3 µM |  | 85 µM |  | 44.3 µM |  | 87.8 µM |  | > 100 µM
N=C(N)SCC(=O)O |  | > 100 µM |  | > 100 µM |  | > 100 µM |  | > 100 µM |  | > 100 µM |  | > 100 µM |  | > 100 µM |  | > 100 µM |  | > 100 µM |  | > 100 µM
CCCC(=O)Nc1cn(COC)c(C(=O)N2C[C@H]3C[C@@]34C2=CC(=O)c2[nH]cc(C)c24)n1 |  | 17.9 µM | 0.555 µM |  | 12.4 µM | 25.2 µM and > 100 µM | 6.68 µM | 50 µM and > 100 µM | 1.84 µM | 8.62 µM and 14.7 µM | 7.39 µM | 50 µM and > 100 µM | 17.3 µM | 35.7 µM and > 100 µM | 2.53 µM | 16 µM and 9.93 µM |  | 14.5 µM and 26.1 µM | 3.47 µM | 28.1 µM and 73.1 µM
CC(=O)OC1Oc2cc(C)c(C)cc2-c2oc(=O)c(-c3ccccc3)cc21 (stereo not given) | 0.271 µM | 3.11 µM | 0.364 µM | > 100 µM | 0.323 µM | 4.39 µM | 0.139 µM | 0.432 µM | 0.177 µM | 4.81 µM | 0.572 µM | > 63.3 µM | 0.464 µM | 55.6 µM | 0.231 µM | 4.06 µM | 0.289 µM | > 32.6 µM | 0.499 µM | 35.9 µM
CCC1(Cl)C(=O)NC(=O)N(C2CC(O)C(CO)O2)C1N=[N+]=[N-] (stereo not given) |  | > 100 µM |  | > 100 µM |  | > 100 µM |  | > 100 µM |  | > 100 µM |  | > 100 µM |  | > 100 µM |  | > 100 µM |  | > 100 µM |  | > 100 µM
COc1cccc(C2CC(=O)Nc3cc4c(cc32)CCC4)c1OC (stereo not given) | 2.39 µM | 13.2 µM | 2.28 µM | 7.08 µM | 3.26 µM | 12.6 µM | 6.49 µM | 59.3 µM | 3.67 µM | 18.4 µM | 4.12 µM | 17.3 µM | 5.33 µM | 28.3 µM | 2.9 µM | 11.1 µM | 2.9 µM | 14.4 µM | 7.18 µM | 38.7 µM
NCCNc1nc2ccccc2c2c(=O)c3cc(F)cc(Cl)c3sc12 | 1.56 µM | 3.31 µM | 1.31 µM | 2.82 µM | 1.56 µM | 3.3 µM | 1.51 µM | 3.01 µM | 1.64 µM | 3.43 µM | 1.82 µM | 3.6 µM | 1.87 µM | 3.4 µM | 2.52 µM | 6.66 µM | 1.66 µM | 3.06 µM | 1.22 µM | 2.49 µM
O=C(/C(=N/Nc1cn[nH]c(=O)c1Cl)c1ccccc1)c1ccccc1 |  | 50.4 µM |  | > 100 µM |  | 59.1 µM |  | 75.1 µM |  | 77.2 µM |  | > 100 µM |  | > 100 µM |  | > 100 µM |  | 53.5 µM |  | > 100 µM
COc1ccc(-c2nc(/C=N/Nc3cc(C)nc4ccc(Br)cc34)c(C)o2)cc1 | 1.49 µM | 2.89 µM | 0.732 µM | 3.38 µM | 1.62 µM | 3.24 µM | 1.72 µM | 3.36 µM | 1.8 µM | 3.67 µM | 1.99 µM | 3.9 µM | 1.79 µM | 3.23 µM | 1.78 µM | 3.18 µM | 1.76 µM | 3.34 µM | 1.52 µM | 2.89 µM
